Test results as given in patent US20260256792A1, “TREATMENT OF CHRONIC SPONTANEOUS URTICARIA BY ADMINISTERING (R)-2-[3-[4-AMINO-3-(2-FLUORO-4-PHENOXY-PHENYL)PYRAZOLO[3,4-D]PYRIMIDIN-1-YL]PIPERIDINE-1-CARBONYL]-4-METHYL-4-[4-(OXETAN-3-YL)PIPERAZIN-1-YL]PENT-2-ENENITRILE” (priority 2023, published 2026).

Tested on: angioedema in CSU patients
Assay: Phase 2 CSU study: angioedema activity score over 7 days (AAS7)
Assay type: in vivo, human
Settings: 400 mg TID; for AAS7 % Change difference for rilzabrutinib vs. placebo LS Mean (95% CI) / AAS7 % Change from baseline LS Mean (SE) / AAS7 = 0, Non-responder n (%) / AAS7 = 0, OR (95% CI) for rilzabrutinib vs. placebo / AAS7 = 0, RRD (%) for rilzabrutinib vs. placebo (95% CI) / AAS7 Post-baseline Mean (SD) / Participants with AAS7 = 0, Responder n (%) / AAS7 Change difference for rilzabrutinib vs. placebo LS Mean (95% CI) / AAS7 Change from baseline LS Mean (SE): angioedema at baseline; for Non-responder n (%), AAS7 = 0 / OR (95% CI) for rilzabrutinib vs. placebo, AAS7 = 0 / RRD (%) for rilzabrutinib vs. placebo (95% CI), AAS7 = 0 / Responder n (%), AAS7 = 0: outlier removed
Text: The study comprises a 12 week, randomized, double-blind, placebo-controlled, multi-center, dose-ranging efficacy and safety phase, followed by a 40 week open label extension (OLE) phase (see FIG. 1). The study consists of three phases and an optional OLE phase. […] The weekly angioedema activity score (AAS7) was proposed as a tertiary endpoint. […] Patients were to complete the AAS using the e-diary. The e-diary was to be used once daily on the same time of each day recording of participant's answers to the angioedema activity score over 7 days (AAS7) questionnaire.

CC(C)(C=C(C#N)C(=O)N1CCC[C@@H](n2nc(-c3ccc(Oc4ccccc4)cc3F)c3c(N)ncnc32)C1)N1CCN(C2COC2)CC1 [rilzabrutinib, (R)-2-[3-[4-amino-3-(2-fluoro-4-phenoxy-phenyl)pyrazolo[3,4-d]pyrimidin-1-yl]piperidine-1-carbonyl]-4-methyl-4-[4-(oxetan-3-yl)piperazin-1-yl]pent-2-enenitrile]
AAS7 % Change difference for rilzabrutinib vs. placebo LS Mean (95% CI) (Week 4, omalizumab-naïve): −49.61 (−90.06, −9.16) % | AAS7 % Change from baseline LS Mean (SE) (Week 4, omalizumab-naïve): −79.54 (14.89) % | AAS7 = 0, Non-responder n (%) (Week 4, omalizumab-naïve): 14 (60.9) n (%) | AAS7 = 0, OR (95% CI) for rilzabrutinib vs. placebo (Week 4, omalizumab-naïve): 1.519 | AAS7 = 0, RRD (%) for rilzabrutinib vs. placebo (95% CI) (Week 4, omalizumab-naïve): 7.3 % | AAS7 Post-baseline Mean (SD) (Week 4, omalizumab-naïve): 11.73 (16.82) | Participants with AAS7 = 0, Responder n (%) (Week 4, omalizumab-naïve): 9 (39.1) n (%) | AAS7 % Change from baseline LS Mean (SE) (Week 5, ITT): −69.87 (9.90) % | AAS7 Change difference for rilzabrutinib vs. placebo LS Mean (95% CI) (Week 5, ITT): −9.32 (−20.56, 1.93) | AAS7 Change from baseline LS Mean (SE) (Week 5, ITT): −38.91 (4.22) | Non-responder n (%), AAS7 = 0 (Week 5, omalizumab-naïve): 14 (41.2) n (%) | OR (95% CI) for rilzabrutinib vs. placebo, AAS7 = 0 (Week 5, omalizumab-naïve): 1.359 | RRD (%) for rilzabrutinib vs. placebo (95% CI), AAS7 = 0 (Week 5, omalizumab-naïve): 7.5 % | Responder n (%), AAS7 = 0 (Week 5, omalizumab-naïve): 20 (58.8) n (%) | AAS7 % Change difference for rilzabrutinib vs. placebo LS Mean (95% CI) (Week 5, omalizumab-naïve): −17.62 (−46.15, 10.90) % | AAS7 = 0, Non-responder n (%) (Week 5, omalizumab-naïve): 13 (56.5) n (%) | AAS7 = 0, OR (95% CI) for rilzabrutinib vs. placebo (Week 5, omalizumab-naïve): 1.550 | AAS7 = 0, RRD (%) for rilzabrutinib vs. placebo (95% CI) (Week 5, omalizumab-naïve): 9.8 % | AAS7 Post-baseline Mean (SD) (Week 5, omalizumab-naïve): 10.83 (15.39) | Participants with AAS7 = 0, Responder n (%) (Week 5, omalizumab-naïve): 10 (43.5) n (%) | AAS7 Change difference for rilzabrutinib vs. placebo LS Mean (95% CI) (Week 6, ITT): −11.42 (−23.52, 0.68) | AAS7 Change from baseline LS Mean (SE) (Week 6, ITT): −38.03 (4.48) | AAS7 Post-baseline Mean (SD) (Week 6, ITT): 12.73 (19.47) | Non-responder n (%), AAS7 = 0 (Week 6, omalizumab-naïve): 14 (41.2) n (%) | OR (95% CI) for rilzabrutinib vs. placebo, AAS7 = 0 (Week 6, omalizumab-naïve): 1.334 | RRD (%) for rilzabrutinib vs. placebo (95% CI), AAS7 = 0 (Week 6, omalizumab-naïve): 6.5 % | Responder n (%), AAS7 = 0 (Week 6, omalizumab-naïve): 20 (58.8) n (%) | AAS7 % Change difference for rilzabrutinib vs. placebo LS Mean (95% CI) (Week 6, omalizumab-naïve): −15.46 (−46.06, 15.15) % | AAS7 = 0, Non-responder n (%) (Week 6, omalizumab-naïve): 12 (52.2) n (%) | AAS7 = 0, OR (95% CI) for rilzabrutinib vs. placebo (Week 6, omalizumab-naïve): 1.874 | AAS7 = 0, RRD (%) for rilzabrutinib vs. placebo (95% CI) (Week 6, omalizumab-naïve): 13.5 % | AAS7 Post-baseline Mean (SD) (Week 6, omalizumab-naïve): 13.55 (20.58) | Participants with AAS7 = 0, Responder n (%) (Week 6, omalizumab-naïve): 11 (47.8) n (%) | AAS7 % Change difference for rilzabrutinib vs. placebo LS Mean (95% CI) (Week 7, ITT): −22.57 (−53.40, 8.26) % | AAS7 % Change from baseline LS Mean (SE) (Week 7, ITT): −68.52 (11.69) % | AAS7 Change difference for rilzabrutinib vs. placebo LS Mean (95% CI) (Week 7, ITT): −9.86 (−21.60, 1.88) | AAS7 Change from baseline LS Mean (SE) (Week 7, ITT): −37.16 (4.45) | AAS7 Post-baseline Mean (SD) (Week 7, ITT): 12.07 (15.62) | Non-responder n (%), AAS7 = 0 (Week 7, omalizumab-naïve): 15 (44.1) n (%) | OR (95% CI) for rilzabrutinib vs. placebo, AAS7 = 0 (Week 7, omalizumab-naïve): 1.277 | RRD (%) for rilzabrutinib vs. placebo (95% CI), AAS7 = 0 (Week 7, omalizumab-naïve): 6.5 % | Responder n (%), AAS7 = 0 (Week 7, omalizumab-naïve): 19 (55.9) n (%) | AAS7 % Change difference for rilzabrutinib vs. placebo LS Mean (95% CI) (Week 7, omalizumab-naïve): −20.11 (−53.85, 13.63) % | AAS7 % Change from baseline LS Mean (SE) (Week 7, omalizumab-naïve): −67.11 (12.58) % | AAS7 = 0, Non-responder n (%) (Week 7, omalizumab-naïve): 13 (56.5) n (%) | AAS7 = 0, OR (95% CI) for rilzabrutinib vs. placebo (Week 7, omalizumab-naïve): 1.351 | AAS7 = 0, RRD (%) for rilzabrutinib vs. placebo (95% CI) (Week 7, omalizumab-naïve): 7.2 % | AAS7 Post-baseline Mean (SD) (Week 7, omalizumab-naïve): 12.43 (15.87) | Participants with AAS7 = 0, Responder n (%) (Week 7, omalizumab-naïve): 10 (43.5) n (%) | AAS7 % Change difference for rilzabrutinib vs. placebo LS Mean (95% CI) (Week 8, ITT): −22.25 (−53.63, 9.12) % | AAS7 % Change from baseline LS Mean (SE) (Week 8, ITT): −74.30 (11.67) % | AAS7 Change difference for rilzabrutinib vs. placebo LS Mean (95% CI) (Week 8, ITT): −11.02 (−22.54, 0.50) | AAS7 Change from baseline LS Mean (SE) (Week 8, ITT): −39.35 (4.28) | AAS7 Post-baseline Mean (SD) (Week 8, ITT): 11.17 (12.56) | Non-responder n (%), AAS7 = 0 (Week 8, omalizumab-naïve): 19 (55.9) n (%) | OR (95% CI) for rilzabrutinib vs. placebo, AAS7 = 0 (Week 8, omalizumab-naïve): 0.964 | RRD (%) for rilzabrutinib vs. placebo (95% CI), AAS7 = 0 (Week 8, omalizumab-naïve): −0.9 % | Responder n (%), AAS7 = 0 (Week 8, omalizumab-naïve): 15 (44.1) n (%) | AAS7 % Change from baseline LS Mean (SE) (Week 8, omalizumab-naïve): −73.05 (12.72) % | AAS7 = 0, Non-responder n (%) (Week 8, omalizumab-naïve): 17 (73.9) n (%)
